Patent US20190119282A1, “IMIDAZOPYRIDAZINES USEFUL AS INHIBITORS OF THE PAR-2 SIGNALING PATHWAY” (Vertex Pharmaceuticals Incorporated, priority 2013, published 2019)

Columns and labels:
[1] = biological target: T1, PAR2 (HT-29 cells, SLIGKV activation) (Homo sapiens, UniProt P55085); assay: Ca FLIPR TETRA assay, ANTAGONIST mode, stimulation with 8 μM SLIGKV; type: cell-based; conditions: HT-29 cells, stimulation with 8 μM SLIGKV
T1 construct: host or cells: HT-29 cells
T1 sequence (P55085 26-397): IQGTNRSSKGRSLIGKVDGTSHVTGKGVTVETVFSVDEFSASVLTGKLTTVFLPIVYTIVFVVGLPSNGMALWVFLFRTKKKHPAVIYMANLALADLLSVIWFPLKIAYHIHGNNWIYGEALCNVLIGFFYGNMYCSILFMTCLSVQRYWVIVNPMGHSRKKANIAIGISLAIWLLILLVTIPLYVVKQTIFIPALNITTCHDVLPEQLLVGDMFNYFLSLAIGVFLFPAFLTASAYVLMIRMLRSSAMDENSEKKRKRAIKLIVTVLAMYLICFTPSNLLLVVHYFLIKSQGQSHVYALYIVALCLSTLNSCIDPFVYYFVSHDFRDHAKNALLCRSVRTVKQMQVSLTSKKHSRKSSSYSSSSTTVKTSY
Method in brief: (§1)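 Antagonist-mode FLIPR Tetra Ca2+ readout: after 30 min r.t. compound pre-incubation, HT-29 cells are challenged with trypsin (3.1 U/mL final), SLIGKV (8 μM), thrombin (1 U/mL) or UTP (0.6 μM). Cells were plated overnight in 1% FBS medium and dye-loaded with Calcium 5; an initial read checks compound agonism.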

[2] = biological target: T2, PAR2 (HT-29 cells, trypsin activation) (Homo sapiens, UniProt P55085); assay: Ca FLIPR TETRA assay, ANTAGONIST mode, stimulation with 3.1 U/mL trypsin; type: cell-based; conditions: HT-29 cells, stimulation with 3.1 U/mL trypsin
T2 construct: host or cells: HT-29 cells
T2 sequence (P55085 26-397): T1 sequence (P55085 26-397)
Method in brief: as §1

[3] = tested on: Thrombin-stimulated Ca2+ response in HT-29 cells; assay: Ca FLIPR TETRA assay, ANTAGONIST mode, stimulation with 1 U/mL Thrombin; type: cell-based, human; conditions: Homo sapiens, HT-29 cells, stimulation with 1 U/mL Thrombin
Method in brief: as §1

[4] = tested on: UTP-stimulated Ca2+ response in HT-29 cells; assay: Ca FLIPR TETRA assay, ANTAGONIST mode, stimulation with 0.6 μM UTP; type: cell-based, human; conditions: Homo sapiens, HT-29 cells, stimulation with 0.6 μM UTP
Method in brief: as §1

## C[C@H]1CN(C(=O)c2cn3nc(-c4ccc(F)cc4)cc(C(F)(F)F)c3n2)CCN1C(=O)[C@@H]1CCCO1 [Compound I-85]
[1]
  IC50: 1600 nM
[2]
  IC50: 10000 nM
[3]
  IC50: 49000 nM
[4]
  IC50: 40000 nM

## Cc1n[nH]c(C(=O)N2CCN(C(=O)c3cn4nc(-c5ccc(F)c(C)c5)cc(C(C)C)c4n3)C(C)(C)C2)n1 [Compound I-345]
[1]; antagonist mode
  IC50: 5.6 nM
[2]; antagonist mode
  IC50: 6.2 nM
[3]; antagonist mode
  IC50: > 1000 nM
[4]; antagonist mode
  IC50: > 1000 nM

## CC(C)c1cc(-c2ccc(F)cc2)nn2cc(C(=O)N3CCN(C(=O)C(C)(C)N)[C@@H](C)C3)nc12 [Compound I-157]
[1]
  IC50: 5700 nM
[2]
  IC50: 14000 nM
[3]
  IC50: 40000 nM
[4]
  IC50: 38000 nM

## COc1cccc(CC(=O)N2CCN(C(=O)c3cn4nc(-c5ccc(F)cc5)cc(C(C)C)c4n3)C[C@@H]2C)c1 [Compound I-132]
[1]
  IC50: 3 nM
[2]
  IC50: 5 nM
[3]
  IC50: > 500 nM
[4]
  IC50: > 500 nM

## CCNC(=O)OC1CCN(C(=O)c2cn3nc(-c4ccc(F)cc4)cc(C)c3n2)CC1 [Compound I-63]
[1]
  IC50: 1000 nM
[2]
  IC50: 4100 nM
[3]
  IC50: 35000 nM
[4]
  IC50: 37000 nM

## CC(C)(C)OC(=O)N1CCN(C(=O)c2cn3nc(-c4ccc(F)cc4)cc(C(C)(C)C)c3n2)C(C)(C)C1 [Compound I-190]
[1]; antagonist mode
  IC50: 4.2 nM
[2]; antagonist mode
  IC50: 4.8 nM
[3]; antagonist mode
  IC50: > 50000 nM
[4]; antagonist mode
  IC50: > 50000 nM

## CC(C)c1cc(-c2ccc(F)c(Cl)c2)nn2cc(C(=O)N3CCN(C(=O)[C@H]4C[C@H](C(=O)O)C4)CC3(C)C)nc12 [Compound I-501]
[1]; antagonist mode
  IC50: 51 nM
[2]; antagonist mode
  IC50: 59.5 nM
[3]; antagonist mode
  IC50: > 1000 nM
[4]; antagonist mode
  IC50: > 1000 nM

## Cc1c[nH]c(C(=O)N2CCN(C(=O)c3cn4nc(-c5ccc(F)cc5)cc(C(C)(C)C)c4n3)C(C)(C)C2)n1 [Compound I-340]
[1]; antagonist mode
  IC50: 1.5 nM
[2]; antagonist mode
  IC50: 1.6 nM
[3]; antagonist mode
  IC50: > 1000 nM
[4]; antagonist mode
  IC50: > 1000 nM

## Cc1cc(-c2cc(C(C)C)c3nc(C(=O)N4CCN(C(=O)[C@H]5C[C@@](O)(C(F)(F)F)C5)CC4(C)C)cn3n2)ccc1F [Compound I-265]
[1]; antagonist mode
  IC50: 3.9 nM
[2]; antagonist mode
  IC50: 5.6 nM
[3]; antagonist mode
  IC50: 570 nM
[4]; antagonist mode
  IC50: > 1000 nM

## C[C@@H]1C(=O)NCCN1C(=O)c1cn2nc(-c3ccc(F)cc3)cc(C(C)(C)C)c2n1 [Compound I-548]
[1]; antagonist mode
  IC50: 545 nM
[2]; antagonist mode
  IC50: > 1000 nM
[3]; antagonist mode
  IC50: > 1000 nM
[4]; antagonist mode
  IC50: > 1000 nM

## Cc1cc(-c2ccc(F)cc2)nn2cc(C(=O)N3CCN(C(=O)C(C)(C)O)[C@@H](C)C3)nc12 [Compound I-158]
[1]
  IC50: 9100 nM
[2]
  IC50: 26000 nM
[3]
  IC50: 77000 nM
[4]
  IC50: 67000 nM

## CC(C)c1cc(-c2ccc(F)cc2)nn2cc(C(=O)N3CCN(C(=O)CCC(F)(F)F)[C@@H](C)C3)nc12 [Compound I-138]
[1]
  IC50: 11 nM
[2]
  IC50: 52 nM
[3]
  IC50: > 5000 nM
[4]
  IC50: > 5000 nM

## CC(C)(C)c1cc(-c2ccc(F)cc2)nn2cc(C(=O)N3CCN(c4cn[nH]n4)C(=O)C3(C)C)nc12 [Compound I-359]
[1]; antagonist mode
  IC50: 1 nM
[2]; antagonist mode
  IC50: 1.1 nM
[3]; antagonist mode
  IC50: > 1000 nM
[4]; antagonist mode
  IC50: > 1000 nM

## CC(C)c1cc(-c2ccc(C(F)(F)F)cc2)nn2cc(C(=O)N3CCN(C(=O)C(C)(C)O)CC3(C)C)nc12 [Compound I-215]
[1]; antagonist mode
  IC50: 12 nM
[2]; antagonist mode
  IC50: 18.2 nM
[3]; antagonist mode
  IC50: > 1000 nM
[4]; antagonist mode
  IC50: > 1000 nM

## CC(C)(C)c1cc(-c2ccc(F)cc2)nn2cc(C(=O)N3CCN(C(=O)c4ccccn4)CC3(C)C)nc12 [Compound I-284]
[1]; antagonist mode
  IC50: 1 nM
[2]; antagonist mode
  IC50: 1.4 nM
[3]; antagonist mode
  IC50: > 1000 nM
[4]; antagonist mode
  IC50: > 1000 nM

## CCc1cc(-c2ccc(F)cc2)nn2cc(C(=O)N3CCN(C(=O)OC(C)(C)C)CC3(C)C)nc12 [Compound I-4, tert-Butyl 4-[8-ethyl-6-(4-fluorophenyl)imidazo[1,2-b]pyridazine-2-carbonyl]-3,3-dimethyl-piperazine-1-carboxylate]
[1]
  IC50: 3 nM
[2]
  IC50: 16 nM
[3]
  IC50: 12000 nM
[4]
  IC50: 17000 nM

## CC(C)(C)c1cc(-c2ccc(F)cc2)nn2cc(C(=O)N3CCN(C(=O)c4ccon4)CC3(C)C)nc12 [Compound I-203]
[1]; antagonist mode
  IC50: 0.7 nM
[2]; antagonist mode
  IC50: 1 nM
[3]; antagonist mode
  IC50: > 1000 nM
[4]; antagonist mode
  IC50: > 1000 nM

## CC(C)(C)c1cc(-c2ccc(Cl)cc2)nn2cc(C(=O)N3CCN(C(=O)c4ncccn4)CC3(C)C)nc12 [Compound I-445]
[1]; antagonist mode
  IC50: 0.4 nM
[2]; antagonist mode
  IC50: 0.9 nM
[3]; antagonist mode
  IC50: > 1000 nM
[4]; antagonist mode
  IC50: > 1000 nM

## CC(C)CCC(=O)N1CCN(C(=O)c2cn3nc(-c4ccc(F)cc4)cc(C(C)C)c3n2)C[C@@H]1C [Compound I-127]
[1]
  IC50: 2 nM
[2]
  IC50: 4 nM
[3]
  IC50: 6500 nM
[4]
  IC50: 5400 nM

## CC(C)(C)c1cc(C2CCC(F)(F)CC2)nn2cc(C(=O)N3CCNC(=O)C3(C)C)nc12 [Compound I-428]
[1]; antagonist mode
  IC50: 30.7 nM
[2]; antagonist mode
  IC50: 59.7 nM
[3]; antagonist mode
  IC50: > 1000 nM
[4]; antagonist mode
  IC50: > 1000 nM

## Cc1cc(-c2ccc(F)cc2)nn2cc(C(=O)N3CCN(C(=O)[C@H](O)CC(C)(C)C)CC3(C)C)nc12 [Compound I-102]
[1]
  IC50: 3 nM
[2]
  IC50: 8 nM
[3]
  IC50: 17000 nM
[4]
  IC50: 23000 nM

## CC(C)c1cc(C2=CCOCC2)nn2cc(C(=O)N3CCN(C(=O)C4(O)CCC4)CC3(C)C)nc12 [Compound I-44, [6-(3,6-dihydro-2H-pyran-4-yl)-8-isopropyl-imidazo[1,2-b]pyridazin-2-yl]-[4-(1-hydroxycyclobutanecarbonyl)-2,2-dimethyl-piperazin-1-yl]methanone]
[1]
  IC50: 5000 nM
[2]
  IC50: 9500 nM
[3]
  IC50: > 50000 nM
[4]
  IC50: > 50000 nM

## CC(C)(C)c1cc(-c2ccc(F)cc2)nn2cc(C(=O)N3CCOC(=O)C3(C)C)nc12 [Compound I-510]
[1]; antagonist mode
  IC50: 6.8 nM
[2]; antagonist mode
  IC50: 8.8 nM
[3]; antagonist mode
  IC50: > 1000 nM
[4]; antagonist mode
  IC50: > 1000 nM

## Cc1cc(-c2ccc(F)cc2)nn2cc(C(=O)N3CCN(C(=O)[C@H](O)C(C)(C)C)[C@@H](C)C3)nc12 [Compound I-153]
[1]
  IC50: 250 nM
[2]
  IC50: 1450 nM
[3]
  IC50: 19000 nM
[4]
  IC50: 22000 nM

## CC(C)c1cc(-c2ccc(F)cc2)nn2cc(C(=O)N3CCN(C(=O)C(C)(C)O)CC3(C)C)nc12 [Compound I-174]
[1]
  IC50: 28 nM
[2]
  IC50: 55 nM
[3]
  IC50: 35000 nM
[4]
  IC50: 38000 nM

## CC(CO)N1CCN(C(=O)c2cn3nc(-c4ccc(F)cc4)cc(C(C)(C)C)c3n2)C(C)(C)C1=O (stereo not drawn) [Compound I-233]
[1]; antagonist mode
  IC50: 5 nM
[2]; antagonist mode
  IC50: 6.8 nM
[3]; antagonist mode
  IC50: > 1000 nM
[4]; antagonist mode
  IC50: > 1000 nM

## C=C(C)c1cc(-c2ccc(F)cc2)nn2cc(C(=O)N3CCN(C(=O)[C@H](O)CC(C)(C)C)[C@@H](C)C3)nc12 [Compound I-99]
[1]
  IC50: 3 nM
[2]
  IC50: 10 nM
[3]
  IC50: > 50000 nM
[4]
  IC50: > 50000 nM

## Cc1nnc(C(=O)N2CCN(C(=O)c3cn4nc(-c5ccc(Cl)c(F)c5)cc(C(C)(C)C)c4n3)C(C)(C)C2)o1 [Compound I-457]
[1]; antagonist mode
  IC50: 0.6 nM
[2]; antagonist mode
  IC50: 0.8 nM
[3]; antagonist mode
  IC50: > 1000 nM
[4]; antagonist mode
  IC50: > 1000 nM

## Cc1cc(-c2cc(C(C)C)c3nc(C(=O)N4CCNC(=O)C4(C)C)cn3n2)ccc1Cl [Compound I-507]
[1]; antagonist mode
  IC50: 3.1 nM
[2]; antagonist mode
  IC50: 4.9 nM
[3]; antagonist mode
  IC50: > 1000 nM
[4]; antagonist mode
  IC50: > 1000 nM

## Cc1nc(C(=O)N2CCN(C(=O)c3cn4nc(-c5ccc(C(F)(F)F)cc5)cc(C(C)C)c4n3)C(C)(C)C2)n[nH]1 [Compound I-413]
[1]; antagonist mode
  IC50: 3.4 nM
[2]; antagonist mode
  IC50: 4.3 nM
[3]; antagonist mode
  IC50: > 1000 nM
[4]; antagonist mode
  IC50: > 1000 nM
